Results as given in patent publication US9771341B2, “Piperazine carbamates and methods of making and using same” (Abide Therapeutics, Inc., priority 2015, dated 2017).

How the values were obtained:
FAAH [1] = molecular target: T1, FAAH (Mus musculus, UniProt O08914); assay: In vitro competitive activity-based protein profiling (mouse), FAAH; format: biochemical; conditions: for inhibition at 1 µM: mouse proteome, in vitro; for IC50: mouse brain membrane fraction or cell lysates, 30 min preincubation at 37° C, FP-Rh probe
T1 construct: Proteomes (mouse brain membrane fraction or cell lysates); from tissue; host or cells: mouse brain membrane fraction (or unspecified cell lysates)
T1 sequence (O08914 1-579): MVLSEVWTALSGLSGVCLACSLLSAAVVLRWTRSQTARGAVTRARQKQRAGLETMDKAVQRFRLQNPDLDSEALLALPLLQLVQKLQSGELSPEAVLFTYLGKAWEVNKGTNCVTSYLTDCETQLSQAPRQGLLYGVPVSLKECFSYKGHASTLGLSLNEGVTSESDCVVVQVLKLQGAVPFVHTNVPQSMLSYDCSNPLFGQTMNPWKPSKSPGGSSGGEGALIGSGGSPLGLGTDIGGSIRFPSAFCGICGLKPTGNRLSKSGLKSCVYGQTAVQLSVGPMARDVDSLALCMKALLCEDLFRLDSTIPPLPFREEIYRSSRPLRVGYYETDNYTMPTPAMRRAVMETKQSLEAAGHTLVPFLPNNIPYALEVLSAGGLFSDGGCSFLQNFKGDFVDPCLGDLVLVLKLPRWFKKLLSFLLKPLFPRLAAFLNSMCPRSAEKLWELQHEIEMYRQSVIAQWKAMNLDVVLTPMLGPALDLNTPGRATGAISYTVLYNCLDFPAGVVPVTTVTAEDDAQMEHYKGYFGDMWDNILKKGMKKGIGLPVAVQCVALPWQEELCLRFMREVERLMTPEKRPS
Procedure, shortened: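 Competitive ABPP: inhibitor exposure (30 min, 37° C) of mouse brain membrane or lysate proteome at 1.0 mg/mL, then labelling with FP-Rh for another 30 min. Activity quantified by in-gel fluorescence of FAAH bands after SDS-PAGE.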

ABHD6 [2] = molecular target: T2, ABHD6 (Mus musculus, UniProt Q8R2Y0); assay: In vitro competitive activity-based protein profiling (mouse), ABHD6; format: biochemical; conditions: for inhibition at 1 µM: mouse proteome, in vitro, read-out: % Inhibition at 1 μM ABHD6; for IC50: mouse brain membrane fraction or cell lysates, 30 min preincubation at 37° C, FP-Rh probe
T2 construct: Proteomes (mouse brain membrane fraction or cell lysates); from tissue; host or cells: mouse brain membrane fraction (or unspecified cell lysates)
T2 sequence (Q8R2Y0 1-336): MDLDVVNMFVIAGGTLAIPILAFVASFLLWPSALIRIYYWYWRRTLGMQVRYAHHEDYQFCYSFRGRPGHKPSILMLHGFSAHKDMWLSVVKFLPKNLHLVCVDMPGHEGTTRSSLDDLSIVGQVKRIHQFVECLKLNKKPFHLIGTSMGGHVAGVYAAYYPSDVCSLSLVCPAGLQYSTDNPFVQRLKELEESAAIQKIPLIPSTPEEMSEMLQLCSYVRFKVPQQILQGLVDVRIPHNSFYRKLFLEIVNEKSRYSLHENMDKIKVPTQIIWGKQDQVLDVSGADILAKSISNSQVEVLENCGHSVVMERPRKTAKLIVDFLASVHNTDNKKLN
Procedure: (§1) In Vitro Competitive Activity-Based Protein Profiling (Mouse).
(§2) Proteomes (mouse brain membrane fraction or cell lysates) (50 μL, 1.0 mg/mL total protein concentration) were preincubated with varying concentrations of inhibitors at 37° C. After 30 min, FP-Rh (1.0 μL, 50 μM in DMSO) was added and the mixture was incubated for another 30 min at 37° C. Reactions were quenched with SDS loading buffer (50 μL-4×) and run on SDS-PAGE.

ABHD6 [3] = molecular target: T2, ABHD6; assay: Mouse brain proteomes from inhibitor treated mice, ABHD6; format: in vivo; conditions: 5 mg/kg oral gavage, C57Bl/6J mice, brain proteome 4 h after administration
Procedure: (§3) Preparation of Mouse Brain Proteomes from Inhibitor Treated Mice.
(§4) Inhibitors were administered to wild-type C57Bl/6J by oral gavage in a vehicle of polyethylene glycol.

MAGL [4] = molecular target: T3, MAGL (Mus musculus, UniProt O35678); assay: In vitro competitive activity-based protein profiling (mouse), MAGL; format: biochemical; conditions: for inhibition at 1 µM: mouse proteome, in vitro, read-out: % Inhibition at 1 μM MAGL; for IC50: mouse brain membrane fraction or cell lysates, 30 min preincubation at 37° C, FP-Rh probe
T3 construct: Proteomes (mouse brain membrane fraction or cell lysates); from tissue; host or cells: mouse brain membrane fraction (or unspecified cell lysates)
T3 sequence (O35678 1-303): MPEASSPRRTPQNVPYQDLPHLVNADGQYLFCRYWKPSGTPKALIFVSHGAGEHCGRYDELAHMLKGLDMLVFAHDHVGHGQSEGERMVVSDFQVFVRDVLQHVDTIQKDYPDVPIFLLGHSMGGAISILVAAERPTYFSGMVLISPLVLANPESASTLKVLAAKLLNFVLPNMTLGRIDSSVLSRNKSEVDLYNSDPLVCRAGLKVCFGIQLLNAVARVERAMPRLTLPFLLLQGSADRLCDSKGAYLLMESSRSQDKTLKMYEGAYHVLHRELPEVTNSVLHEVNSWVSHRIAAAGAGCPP
Procedure: as §1, §2

FAAH [5] = molecular target: T1, FAAH; assay: Mouse brain proteomes from inhibitor treated mice, FAAH; format: in vivo; conditions: 5 mg/kg oral gavage, C57Bl/6J mice, brain proteome 4 h after administration
Procedure: as §3
Inhibitors were administered to wild-type C57Bl/6J by oral gavage in a vehicle of polyethylene glycol. Each animal was sacrificed 4 h following administration and brain proteomes were prepared and analyzed according to previously established methods (See Niphakis, M. J., et al. (2011) ACS Chem. Neurosci. and Long, J. Z., et al. Nat. Chem. Biol. 5:37-44)

MAGL [6] = molecular target: T3, MAGL; assay: Mouse brain proteomes from inhibitor treated mice, MAGL; format: in vivo; conditions: 5 mg/kg oral gavage, C57Bl/6J mice, brain proteome 4 h after administration
Procedure: as §3, §4

SMILES	inhibition at 1 µM (FAAH [1]) [%]	IC50 (FAAH [1]) [nM]	inhibition at 1 µM (ABHD6 [2]) [%]	IC50 (ABHD6 [2]) [nM]	inhibition at 5 mg/kg (ABHD6 [3]) [%]	inhibition at 1 µM (MAGL [4]) [%]	IC50 (MAGL [4]) [nM]	inhibition at 5 mg/kg (FAAH [5]) [%]	inhibition at 5 mg/kg (MAGL [6]) [%]
O=C(OC(C(F)(F)F)C(F)(F)F)N1CCN(Cc2ccc(C(F)(F)F)cc2N2CCCC2CO)CC1 (stereo not drawn) [Example 71, 1,1,1,3,3,3-hexafluoropropan-2-yl 4-(2-(2-(hydroxymethyl)pyrrolidin-1-yl)-4-(trifluoromethyl)benzyl)piperazine-1-carboxylate]	< 25	> 1000	< 25	> 1000	< 25	> 75	< 100	< 25	> 75
O=C(OC(C(F)(F)F)C(F)(F)F)N1CCN(Cc2cccc(Cl)c2N2CC[C@H](CF)C2)CC1 [Example 55, 1,1,1,3,3,3-hexafluoropropan-2-yl (S)-4-(3-chloro-2-(3-(fluoromethyl)pyrrolidin-1-yl)benzyl)piperazine-1-carboxylate]	< 25	> 1000	< 25	> 1000	< 25	> 75	< 100	< 25	> 75
C#CCO[C@H]1CCN(c2cc(Cl)ccc2CN2CCN(C(=O)OC(C(F)(F)F)C(F)(F)F)CC2)C1 [Example 3, 1,1,1,3,3,3-hexafluoropropan-2-yl (S)-4-(4-chloro-2-(3-(prop-2-yn-1-yloxy)pyrrolidin-1-yl)benzyl)piperazine-1-carboxylate]		> 1000		> 1000	< 25		< 100	< 25	> 75
O=C(OC(C(F)(F)F)C(F)(F)F)N1CCN(Cc2ccc(Cl)cc2N2CC[C@@H](N3CCCCC3=O)C2)CC1 [Example 43, 1,1,1,3,3,3-hexafluoropropan-2-yl (R)-4-(4-chloro-2-(3-(2-oxopiperidin-1-yl)pyrrolidin-1-yl)benzyl)piperazine-1-carboxylate]	< 25	> 1000	< 25	> 1000	< 25	> 75	< 100	< 25	25 to 75
O=C(OC(C(F)(F)F)C(F)(F)F)N1CCN(Cc2ccc(C(F)(F)F)cc2N2CCC(CO)CC2)CC1 [Example 74, 1,1,1,3,3,3-hexafluoropropan-2-yl 4-(2-(4-(hydroxymethyl)piperidin-1-yl)-4-(trifluoromethyl)benzyl)piperazine-1-carboxylate]	< 25	> 1000	< 25	> 1000	< 25	> 75	< 100	< 25	25 to 75
CS(=O)(=O)N[C@@H]1CCN(c2cc(Cl)ccc2CN2CCN(C(=O)OC(C(F)(F)F)C(F)(F)F)CC2)C1 [Example 39, 1,1,1,3,3,3-hexafluoropropan-2-yl (R)-4-(4-chloro-2-(3-(methylsulfonamido)pyrrolidin-1-yl)benzyl)piperazine-1-carboxylate]	< 25	> 1000	25 to 75	> 1000	25 to 75	> 75	< 100	< 25	> 75
O=C(OC(C(F)(F)F)C(F)(F)F)N1CCN(Cc2ccc(C(F)(F)F)cc2N2CC3CN(C4CC4)CC3C2)CC1 (stereo not drawn) [Example 65, 1,1,1,3,3,3-hexafluoropropan-2-yl 4-(2-(5-cyclopropylhexahydropyrrolo[3,4-c]pyrrol-2(1H)-yl)-4-(trifluoromethyl)benzyl)piperazine-1-carboxylate]	< 25	> 1000	25 to 75	> 1000	< 25	> 75	< 100	< 25	< 25
